The source of these data is EP4678638A1, “NEW E3 UBIQUITIN LIGASE LIGAND, PROTEIN DEGRADATION AGENT AND USE THEREOF” (priority 2023, dated 2024).

Assay [1] deals with T1, human Cereblon WT GST-tagged protein (Homo sapiens, UniProt Q96SW2).
T1 construct: purchased CISBIO 64BDCRBNPEH
In words: CRBN binding, HTRF (CEREBLON BINDING kit). The settings on record: Table II-2, CRBN binding screening, HTRF; for inhibition at 0.5 µM: read-out: Inhibition rate (%) at 0.5µM; for inhibition at 2 µM: read-out: Inhibition rate (%) at 2 µM. In outline: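 Competitive HTRF: GST-tagged human WT Cereblon mixed with compound, Thalidomide-Re tracer and GST Eu antibody, incubated 3 h at room temperature. Signals read at 620 and 665 nm.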
(TR-FRET usually uses a lanthanide donor and a delayed reading to cut background.)

The target of a further assay is T2, IRAK4 (Homo sapiens, UniProt Q9NWZ3).
T2 construct: evaluate the effects of the compounds of the present disclosure on the expression of target proteins in cells; endogenous in cells; host or cells: hPBMC
T2 sequence (Q9NWZ3 1-460): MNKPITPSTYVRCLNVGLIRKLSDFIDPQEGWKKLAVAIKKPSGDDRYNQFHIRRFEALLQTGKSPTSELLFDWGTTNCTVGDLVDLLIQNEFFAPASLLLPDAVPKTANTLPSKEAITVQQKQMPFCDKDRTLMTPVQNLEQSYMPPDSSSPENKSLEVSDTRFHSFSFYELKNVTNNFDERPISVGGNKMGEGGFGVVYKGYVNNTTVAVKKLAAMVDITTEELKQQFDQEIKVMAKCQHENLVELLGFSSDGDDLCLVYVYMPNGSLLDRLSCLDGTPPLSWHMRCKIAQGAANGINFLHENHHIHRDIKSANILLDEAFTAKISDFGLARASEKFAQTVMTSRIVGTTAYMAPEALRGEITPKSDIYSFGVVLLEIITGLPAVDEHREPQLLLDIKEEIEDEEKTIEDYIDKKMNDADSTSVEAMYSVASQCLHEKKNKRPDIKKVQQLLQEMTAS
Put plainly: Western blot degradation of IRAK4 (hPBMC). Type of assay: cell-based. The settings on record: Table D1. In outline:
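Quantification by ImageJ densitometry of Western blot bands: DC50 is the fitted concentration halving band intensity relative to DMSO. Percent remaining uses internal-control normalization, and degradation rate is its complement.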
For orientation: Immunoblotting shows a protein as a band on a membrane.

Each structure is given as a SMILES string.

T1 sequence (Q96SW2 whole entry): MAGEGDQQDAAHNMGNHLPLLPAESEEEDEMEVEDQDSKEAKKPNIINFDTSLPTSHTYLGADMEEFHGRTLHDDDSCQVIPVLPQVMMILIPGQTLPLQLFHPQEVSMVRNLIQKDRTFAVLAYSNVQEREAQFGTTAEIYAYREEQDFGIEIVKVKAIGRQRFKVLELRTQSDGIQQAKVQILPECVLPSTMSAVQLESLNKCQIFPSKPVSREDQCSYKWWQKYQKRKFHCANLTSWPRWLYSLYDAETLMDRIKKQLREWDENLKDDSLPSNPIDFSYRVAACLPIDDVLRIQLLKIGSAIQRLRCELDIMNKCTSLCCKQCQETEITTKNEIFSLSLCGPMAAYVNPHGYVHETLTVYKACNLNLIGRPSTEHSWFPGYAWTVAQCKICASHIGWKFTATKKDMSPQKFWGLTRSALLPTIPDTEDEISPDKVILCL

As to `COc1cc2nn(C3CCN(Cc4ccc(C5CCC(=O)NC5=O)cn4)CC3)cc2cc1NC(=O)c1cccc(C(F)(F)F)c1` (stereo not drawn) [GT-07417, N-(2-(1-((5-(2,6-dioxopiperidin-3-yl)pyridin-2-yl)methyl)piperidin-4-yl)-6-methoxy-2H-indazol-5-yl)-3-(trifluoromethyl)benzamide], in assay [1] (at 0.5µM), the inhibition at 0.5 µM is 30 to 40%. In addition, the inhibition at 2 µM in assay [1] (at 2 µM) fell in the range of 60 to 80%. For the same compound, the “Degradation of substrate protein IRAK4 (substrate protein remaining %)” value (shortened to “Degradation … (substrate protein remaining %)”) at IRAK4 is recorded as “A (A is defined as 0% ≤ substrate protein remaining % ≤ 80%)”.
As to `COc1cc2nn(C3CCN(Cc4cncc(C5CCC(=O)NC5=O)c4)CC3)cc2cc1NC(=O)c1cccc(C(F)(F)F)c1` (stereo not drawn) [GT-07419, N-(2-(1-((5-(2,6-dioxopiperidin-3-yl)pyridin-3-yl)methyl)piperidin-4-yl)-6-methoxy-2H-indazol-5-yl)-3-(trifluoromethyl)benzamide], the inhibition at 0.5 µM in assay [1] (at 0.5µM) fell in the range of 20 to 30%. The inhibition at 2 µM in assay [1] (at 2 µM) was 53 to 60%. In addition, the “Degradation … (substrate protein remaining %)” value on IRAK4 is given as “A (A is defined as 0% ≤ substrate protein remaining % ≤ 80%)”.
As for `COc1cc2nn(C3CCN(Cc4cncc(N5CCC(=O)NC5=O)c4)CC3)cc2cc1NC(=O)c1cccc(C(F)(F)F)n1` [GT-07533, N-(2-(1-((5-(2,4-dioxotetrahydropyrimidin-1(2H)-yl)pyridin-3-yl)methyl)piperidin-4-yl)-6-methoxy-2H-indazol-5-yl)-6-(trifluoromethyl)picolinamide], the inhibition at 0.5 µM in assay [1] (at 0.5µM) was 10 to 20%. Also, in assay [1] (at 2 µM), the inhibition at 2 µM lay within 53 to 60%. Besides, the “Degradation … (substrate protein remaining %)” value on IRAK4 is listed as “A (A is defined as 0% ≤ substrate protein remaining % ≤ 80%)”.
For `CC(C)(O)c1cc2nn(C3CCN(Cc4ccnc(C5CCC(=O)NC5=O)c4)CC3)cc2cc1NC(=O)c1cccc(C(F)(F)F)n1` (stereo not drawn) [GT-07542, N-(2-(1-((2-(2,6-dioxopiperidin-3-yl)pyridin-4-yl)methyl)piperidin-4-yl)-6-(2-hydroxypropan-2-yl)-2H-indazol-5-yl)-6-(trifluoromethyl)picolinamide] the same measures were 30 to 40%, 60 to 80% and “A (A is defined as 0% ≤ substrate protein remaining % ≤ 80%)”.
Consider `CC(C)(O)c1cc2nn(C3CCN(Cc4cncc(C5CCC(=O)NC5=O)c4)CC3)cc2cc1NC(=O)c1cccc(C(F)(F)F)n1` (stereo not drawn) [GT-07543, N-(2-(1-((5-(2,6-dioxopiperidin-3-yl)pyridin-3-yl)methyl)piperidin-4-yl)-6-(2-hydroxypropan-2-yl)-2H-indazol-5-yl)-6-(trifluoromethyl)picolinamide], for which the inhibition at 0.5 µM in assay [1] (at 0.5µM) fell in the range of 30 to 40%. For the same compound, the inhibition at 2 µM in assay [1] (at 2 µM) is 60 to 80%. Moreover, on IRAK4, the “Degradation … (substrate protein remaining %)” value is “A (A is defined as 0% ≤ substrate protein remaining % ≤ 80%)”.
For `CC(C)Nc1cc(-n2ccc3cc(C#N)cnc32)ncc1C(=O)NC1CCN(Cc2cc(C3CCC(=O)NC3=O)cnc2F)CC1` (stereo not drawn) [GT-07544, 6-(5-cyano-1H-pyrrolo[2,3-b]pyridin-1-yl)-N-(1-((5-(2,6-dioxopiperidin-3-yl)-2-fluoropyridin-3-yl)methyl)piperidin-4-yl)-4-(isopropylamino)nicotinamide] the same measures were 53 to 60%, 80 to 100% and “A (A is defined as 0% ≤ substrate protein remaining % ≤ 80%)”.
On to `COc1cc2nn(C3CCN(Cc4cc(C5CCC(=O)NC5=O)cnc4F)CC3)cc2cc1NC(=O)c1cccc(C(F)(F)F)n1` (stereo not drawn) [GT-07549, N-(2-(1-((5-(2,6-dioxopiperidin-3-yl)-2-fluoropyridin-3-yl)methyl)piperidin-4-yl)-6-methoxy-2H-indazol-5-yl)-6-(trifluoromethyl)picolinamide], for which, in assay [1] (at 0.5µM), the inhibition at 0.5 µM is 40 to 53%. Moreover, in assay [1] (at 2 µM), the inhibition at 2 µM is 80 to 100%. The “Degradation … (substrate protein remaining %)” value at IRAK4 is “A (A is defined as 0% ≤ substrate protein remaining % ≤ 80%)”.
In the case of `CC(C)(O)c1cc2nc(C3CCN(Cc4ccc(C5CCC(=O)NC5=O)cn4)CC3)sc2cc1NC(=O)c1cccc(C(F)(F)F)n1` (stereo not drawn) [GT-07623, N-(2-(1-((5-(2,6-dioxopiperidin-3-yl)pyridin-2-yl)methyl)piperidin-4-yl)-5-(2-hydroxypropan-2-yl)benzo[d]thiazol-6-yl)-6-(trifluoromethyl)picolinamide], the “Inhibition rate (%) at 0.5µM” value in assay [1] (at 0.5µM) was “a2 (20% < a2 ≤ 30%)”. For the same compound, the “Inhibition rate (%) at 2 µM” value in assay [1] (at 2 µM) was “a6 (60% < a6 ≤ 80%)”. At IRAK4, the “Degradation … (substrate protein remaining %)” value is on record as “A (A is defined as 0% ≤ substrate protein remaining % ≤ 80%)”.
With `CC(C)(O)c1cc2nc(C3CCN(Cc4cncc(C5CCC(=O)NC5=O)c4)CC3)sc2cc1NC(=O)c1cccc(C(F)(F)F)n1` (stereo not drawn) [GT-07624, N-(2-(1-((5-(2,6-dioxopiperidin-3-yl)pyridin-3-yl)methyl)piperidin-4-yl)-5-(2-hydroxypropan-2-yl)benzo[d]thiazol-6-yl)-6-(trifluoromethyl)picolinamide], the inhibition at 0.5 µM in assay [1] (at 0.5µM) was in the range of 20 to 30%. Also, the inhibition at 2 µM in assay [1] (at 2 µM) lay in the range of 60 to 80%. For the same compound, the “Degradation … (substrate protein remaining %)” value at IRAK4 is recorded as “A (A is defined as 0% ≤ substrate protein remaining % ≤ 80%)”.
For `CC(C)(O)c1cc2nc(C3CCN(Cc4cc(N5CCC(=O)NC5=O)ncc4F)CC3)oc2cc1NC(=O)c1cccc(C(F)(F)F)n1` [GT-07626, N-(2-(1-((2-(2,4-dioxotetrahydropyrimidin-1(2H)-yl)-5-fluoropyridin-4-yl)methyl)piperidin-4-yl)-5-(2-hydroxypropan-2-yl)benzo[d]oxazol-6-yl)-6-(trifluoromethyl)picolinamide] the same measures were 20 to 30%, 60 to 80% and “A (A is defined as 0% ≤ substrate protein remaining % ≤ 80%)”.
As for `CC(C)(O)c1cc2nc(C3CCN(Cc4cncc(N5CCC(=O)NC5=O)c4)CC3)oc2cc1NC(=O)c1cccc(C(F)(F)F)n1` [GT-07628, N-(2-(1-((5-(2,4-dioxotetrahydropyrimidin-1(2H)-yl)pyridin-3-yl)methyl)piperidin-4-yl)-5-(2-hydroxypropan-2-yl)benzo[d]oxazol-6-yl)-6-(trifluoromethyl)picolinamide], the inhibition at 0.5 µM in assay [1] (at 0.5µM) lay within 20 to 30%. Also, in assay [1] (at 2 µM), the inhibition at 2 µM lay within 60 to 80%. The “Degradation … (substrate protein remaining %)” value at IRAK4 is on record as “A (A is defined as 0% ≤ substrate protein remaining % ≤ 80%)”.
The like results for `CC(C)(O)c1cc2nc(C3CCN(Cc4ccc(C5CCC(=O)NC5=O)cn4)CC3)oc2cc1NC(=O)c1cccc(C(F)(F)F)n1` (stereo not drawn) [GT-07763, N-(2-(1-((5-(2,6-dioxopiperidin-3-yl)pyridin-2-yl)methyl)piperidin-4-yl)-5-(2-hydroxypropan-2-yl)benzo[d]oxazol-6-yl)-6-(trifluoromethyl)picolinamide] were, in that order, 40 to 53%, 60 to 80% and “A (A is defined as 0% ≤ substrate protein remaining % ≤ 80%)”.

What is called inhibition is how much of the control response was suppressed.
